Results as given in US12077503B2, “Substituted cyclic amides and their use as herbicides” (FMC CORPORATION, priority 2015, dated 2024).

Columns and labels:
Type in all cases: in vivo
[1] = test system: Galium (catchweed bedstraw, Galium aparine); assay: Test A postemergence
How it was run: (§1)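 In a loam soil and sand blend, planted seeds got a preemergence directed soil spray, and young plants at the one- to two-leaf stage, 2–10 cm high, got a postemergence application; ~10 d greenhouse hold; injury rated visually, 0 = none, 100 = complete control.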

Kochia (Kochia scoparia) [2] = assay: Test A postemergence
How it was run: as §1

[3] = test system: blackgrass (Alopecurus myosuroides); assay: Test A postemergence
How it was run: as §1

corn (Zea mays) = assay: Test A postemergence
How it was run: as §1

[4] = test system: ragweed (common ragweed, Ambrosia elatior); assay: Test A postemergence
How it was run: as §1

[5] = test system: ryegrass, Italian (Italian ryegrass, Lolium multiflorum); assay: Test A postemergence
How it was run: as §1

[6] = test system: barnyardgrass (Echinochloa crus-galli); assay: Test A postemergence
How it was run: as §1

[7] = test system: giant foxtail (Setaria faberii); assay: Test A postemergence
How it was run: as §1

[8] = test system: pigweed (Amaranthus retroflexus); assay: Test A postemergence
How it was run: as §1

[9] = test system: wheat (Triticum aestivum); assay: Test A postemergence
How it was run: as §1

[10] = test system: sedge, umbrella (small-flower umbrella sedge, Cyperus difformis); assay: Test B flooded paddy test; conditions: Flood, 250 g ai/ha; 0 to 100 scale where 0 is no effect and 100 is complete control; 13 to 15 d
How it was run: (§2)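 Flooding to 3 cm over soil accompanied treatment, which consisted of adding compound to the standing water around 2-leaf plants; depth was then maintained. Visual assessment versus controls followed at 13 to 15 d (scale 0–100, 0 meaning no effect).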

rice (Oryra sativa) = assay: Test B flooded paddy test; conditions: Flood, 250 g ai/ha; 0 to 100 scale where 0 is no effect and 100 is complete control; 13 to 15 d
How it was run: as §2

[11] = test system: ducksalad (Heteranthera limosa); assay: Test B flooded paddy test; conditions: Flood, 250 g ai/ha; 0 to 100 scale where 0 is no effect and 100 is complete control; 13 to 15 d
How it was run: as §2

[12] = test system: barnyardgrass (Echinochloa crus-galli); assay: Test B flooded paddy test; conditions: Flood, 250 g ai/ha; 0 to 100 scale where 0 is no effect and 100 is complete control; 13 to 15 d
How it was run: as §2

Kochia (Kochia scoparia) [13] = assay: Test A preemergence; conditions: for Plant response rating, Kochia: 125 g ai/ha
How it was run: as §1

[14] = test system: ragweed (common ragweed, Ambrosia elatior); assay: Test A preemergence; conditions: for Plant response rating, Ragweed: 125 g ai/ha
How it was run: as §1

[15] = test system: ryegrass, Italian (Italian ryegrass, Lolium multiflorum); assay: Test A preemergence; conditions: for Plant response rating, Ryegrass, Italian: 125 g ai/ha
How it was run: as §1

[16] = test system: barnyardgrass (Echinochloa crus-galli); assay: Test A preemergence; conditions: for Plant response rating, Barnyardgrass: 125 g ai/ha
How it was run: as §1

[17] = test system: giant foxtail (Setaria faberii); assay: Test A preemergence; conditions: for Plant response rating, Foxtail, Giant: 125 g ai/ha
How it was run: as §1

[18] = test system: pigweed (Amaranthus retroflexus); assay: Test A preemergence; conditions: for Plant response rating, Pigweed: 125 g ai/ha
[19] = 125 g ai/ha, postemergence, visual injury rating on 0 to 100 scale (0 no effect, 100 complete control), approx. 10 d
[20] = Postemergence, 500 g ai/ha, 0 to 100 scale where 0 is no effect and 100 is complete control
[21] = Preemergence, visual injury after approximately 10 d, 0 to 100 scale where 0 is no effect and 100 is complete control
[22] = Preemergence, 500 g ai/ha, visual injury approx. 10 d
[23] = 500 g ai/ha, postemergence, 0 to 100 scale, 0 no effect, 100 complete control
[24] = Postemergence, 125 g ai/ha, visual injury, 0 to 100 scale (0 no effect, 100 complete control), approx. 10 d
[25] = preemergence, 0 to 100 scale (0 no effect, 100 complete control)
[26] = Preemergence, 500 g ai/ha, 0 is no effect, 100 is complete control

O=C1NCC(c2ccc(F)cc2F)C1C(=O)Nc1ccc(F)cc1F (racemic) [Compound 518]
50: Plant response rating, Barnyardgrass [6, 20]
70: Plant response rating, Foxtail, Giant [7, 20] | Plant response rating, Foxtail, Giant [17, 21]
90: Foxtail, Giant plant response rating (0 to 100 scale, 0 is no effect, 100 is complete control) [17, 22]
60: Barnyardgrass plant response rating (0 to 100 scale, 0 is no effect, 100 is complete control) [16, 22]
0: Galium plant response rating [1, 19] | Kochia plant response rating (Kochia (Kochia scoparia) [2]; [19]) | Plant response rating, Kochia (Kochia (Kochia scoparia) [2]; [20]) | Blackgrass plant response rating [3, 19] | Plant response rating, Blackgrass [3, 20] | Corn plant response rating (corn (Zea mays); [19]) | Plant response rating, Corn (corn (Zea mays); [20]) | Ragweed plant response rating [4, 19] | Plant response rating, Ragweed [4, 20] | Ryegrass, Italian plant response rating [5, 19] | Plant response rating, Ryegrass, Italian [5, 20] | Barnyardgrass plant response rating [6, 19] | Pigweed plant response rating [8, 19] | Plant response rating, Pigweed [8, 20] | Wheat plant response rating [9, 19] | Plant response rating, Wheat [9, 20] | Plant response rating, Sedge, Umbrella [10] | Plant response rating, Rice (rice (Oryra sativa)) | Plant response rating, Barnyardgrass [12] | Plant response rating, Kochia (Kochia (Kochia scoparia) [13]; [21]) | Kochia plant response rating (0 to 100 scale, 0 is no effect, 100 is complete control) (Kochia (Kochia scoparia) [13]; [22]) | Plant response rating, Ragweed [14, 21] | Ragweed plant response rating (0 to 100 scale, 0 is no effect, 100 is complete control) [14, 22] | Plant response rating, Ryegrass, Italian [15, 21] | Ryegrass, Italian plant response rating (0 to 100 scale, 0 is no effect, 100 is complete control) [15, 22] | Plant response rating, Barnyardgrass [16, 21] | Plant response rating, Pigweed [18, 21] | Pigweed plant response rating (0 to 100 scale, 0 is no effect, 100 is complete control) [18, 22]
20: Plant response rating, Galium [1, 20] | Foxtail, Giant plant response rating [7, 19]
65: Plant response rating, Ducksalad [11]

O=C1NCC(c2cccc(F)c2)C1C(=O)Nc1cccc(F)c1F (racemic) [Compound 375]
0: Plant response rating, Ragweed [4, 24] | Plant response rating, Ryegrass, Italian [5, 24] | Plant response rating, Sedge, Umbrella [10] | Plant response rating, Ragweed [14, 25]
90: Plant response rating, Barnyardgrass [6, 23] | Plant response rating, Barnyardgrass [6, 24] | Plant response rating, Foxtail, Giant [7, 23] | Plant response rating, Foxtail, Giant [7, 24] | Plant response rating, Barnyardgrass [16, 25] | Barnyardgrass plant response rating (0 to 100 scale) [16, 26] | Plant response rating, Foxtail, Giant [17, 25] | Foxtail, Giant plant response rating (0 to 100 scale) [17, 26]
20: Plant response rating, Ragweed [4, 23] | Plant response rating, Ryegrass, Italian [5, 23] | Plant response rating, Pigweed [8, 24] | Plant response rating, Kochia (Kochia (Kochia scoparia) [13]; [25]) | Plant response rating, Ryegrass, Italian [15, 25] | Plant response rating, Pigweed [18, 25]
100: Plant response rating, Ducksalad [11]
70: Plant response rating, Blackgrass [3, 23] | Plant response rating, Barnyardgrass [12] | Kochia plant response rating (0 to 100 scale) (Kochia (Kochia scoparia) [13]; [26]) | Ragweed plant response rating (0 to 100 scale) [14, 26] | Pigweed plant response rating (0 to 100 scale) [18, 26]
50: Plant response rating, Galium [1, 23] | Plant response rating, Blackgrass [3, 24] | Plant response rating, Pigweed [8, 23] | Ryegrass, Italian plant response rating (0 to 100 scale) [15, 26]
80: Plant response rating, Corn (corn (Zea mays); [23]) | Plant response rating, Wheat [9, 23]
40: Plant response rating, Galium [1, 24]
60: Plant response rating, Kochia (Kochia (Kochia scoparia) [2]; [23])
30: Plant response rating, Kochia (Kochia (Kochia scoparia) [2]; [24]) | Plant response rating, Corn (corn (Zea mays); [24]) | Plant response rating, Wheat [9, 24] | Plant response rating, Rice (rice (Oryra sativa))
